Type in all cases: cell-based
One assay relates to Rb. Briefly: Western blot of Rb levels in SW480 cells. Particulars: SW480, 6.3 μM, 24, 48, and 72 h, relative to control. Here is the method: SW480 cells were seeded in 6-well plates and treated as described in the previous subsection. After 24, 48 or 72 h of incubation, adherent cells were washed twice with ice-cold DPBS and incubated with lysis buffer (0.2% Triton X-100, 0.5 mM sodium deoxycholate, 1 mM Na-EDTA, 1 mM DTT, 20 mM Tris–HCl (pH 7.5), 0.5% phosphatases inhibitor cocktail, and 1% proteases inhibitor cocktail) for 30 min at 4 °C. The cells were scraped, sonicated, and centrifuged at 120 00 × g (20 min at 4 °C). […] The gels were then transferred to PVDF membranes, which were blocked with 5% skim milk in PBS-Tween-20 (0.1%) for 1 h at room temperature. Subsequently, the membranes were incubated with the primary antibodies for 30 mi at room temperature (actin) or overnight at 4 °C (CDK4, CDK6, cyclin A, Rb and SOD2/MnSOD). After incubation, the membranes were washed with PBS-Tween-20 (0.1%) and incubated with anti-mouse secondary antibody (40 min) or anti-rabbit secondary antibody (1 h) at room temperature. Finally, the membranes were washed with PBS-Tween-20 (0.1%) and treated with the Immobilon Western Chemiluminescent HRP Substrate Kit, and autoradiography was performed using an FPM-100A film processor (Fujifilm, Tokyo, Japan). western blot results were obtained from three independent experiments, except for cyclin A at 24 h (n = 2), Rb protein at 24 and 72 h (n = 2), and SOD2 (MnSOD) at 72 h (n = 2).
(In general: A western blot detects proteins with antibodies after separation by electrophoresis.)

For assay [1], the system named is intracellular ROS levels in SW480 cells. Briefly: Intracellular ROS quantification assay (H2DCFDA, flow cytometry). The settings on record: SW480, 6.3 μM. As to the method:
Intracellular ROS levels can be quantified using lipophilic and non-fluorescent probes, such as 2′,7′-dichlorodihydrofluorescein diacetate (H2DCFDA).[60] To assess the effect of compound 17 on intracellular ROS levels, SW480 cells were treated with compound 17, followed by incubation with the H2DCFDA probe after 24, 48, and 72 h of treatment. After, the cells were subjected to flow cytometry to quantify the fluorescence intensity of 2′,7′-dichlorofluorescein (DCF), as shown in Fig. 9. […] Both effects of compound 17 contributed to the inhibition of SW480 cell growth.
SW480 cells were seeded at a density of 1.68 × 10^5 cells per well in 6-well plates and incubated at 37 °C for 24 h. The cells were then treated with compound 17 (IC50 value) for 24, 48, or 72 h. The adherent cells were trypsinized, washed with DPBS, collected by centrifugation, and resuspended in 1 mL of HBSS containing 50 μM H2DCFDA probe and 2 mM L-glutamine. After 45 min of incubation at 37 °C in a cell culture incubator, the cell suspensions were washed with 2 mL DPBS and collected by centrifugation. The cells were then stained with 350 μL of DPBS containing 20 μg per mL PI solution (1 mg mL^−1). Inside the cells, the H2DCFDA probe is deacetylated and undergoes oxidation in the presence of ROS, transforming into a DCF fluorescent compound. The fluorescence emitted by DCF from 1 × 10^4 PI-negative cells was measured at 520 nm using a Gallios flow cytometer (Beckman Coulter, Brea, CA, USA).

Assay [2] relates to SW480 cells. The assay can be described thus: Cell proliferation assay and cell doubling time. Particulars: 6.3 μM, ln(2)/cell growth rate. The text has this:
Cell growth rates represent a characteristic of cell lines, indicating the rate at which the cell population size changes over time.[29] The commonly used metric for assessing the cell growth rate is the cell doubling time, which denotes the time required for a cell population to double in size. Cell doubling time can be estimated using the following formula: ln(2)/cell growth rate.[30] A time-dependent cell growth curve was constructed to elucidate the effect of compound 17 on the growth pattern of SW480 cells (Fig. 4). […] The cell concentration at each time point allowed us to determine the cell growth rate and subsequently calculate the cell doubling time. Compound 17 induced an increase in the doubling time of SW480 cells (69 h) compared to the control group (43 h). In summary, compound 17 affected the growth pattern of SW480 cells by increasing the cell doubling time, consequently decreasing the cell growth rate.
SW480 cells (1.68 × 10^5 cells per well) were seeded in 6-well plates and incubated at 37 °C for 24 h. The cells were then treated with compound 17 (IC50 value) for 24, 48 or 72 h. […] Cell viability was determined using the Invitrogen Countess 3 Automated Cell Counter (Thermo Fisher Scientific, Waltham, MA, USA). […]

Assay [3] relates to SW480 cells. The assay can be described thus: Apoptosis assay (annexin V-FITC/PI, flow cytometry). Particulars: SW480, 6.3 μM, 24, 48 or 72 h. As to the method: Our objective was to assess whether the anticancer activity observed in SW480 cells treated with compound 17 results from the activation of apoptosis.
SW480 cells were seeded at a density of 1.68 × 10^5 cells per well in 6-well plates and incubated at 37 °C. […] Adherent cells were harvested by trypsinization, and they were washed with DPBS and collected by centrifugation along with the cells in suspension. Cells were resuspended in 3 μL annexin V FITC and 95 μL binding buffer containing 140 mM NaCl, 2.5 mM CaCl2, and 10 mM HEPES/NaOH (pH 7.4). The cell suspension was then incubated in the dark, at room temperature for 30 min. The cells were then stained with 510 μL of a mixture containing 500 μL of binding buffer and 10 μL of PI solution (1 mg mL^−1). Finally, data from 1 × 10^4 cells were collected through fluorescence activated cell sorting (FACS) analysis using a Gallios flow cytometer (Beckman Coulter, Brea, CA, USA) at 488 nm.
In general terms: A flow cytometer gives signals particle by particle.

The values below come from paper PMC12498136, “Synthesis and biological evaluation of novel carnosic acid derivatives with anticancer activity” (RSC Advances, 2025).

Consider `CC(=O)Oc1c(C(C)C)cc2c(c1OC(C)=O)[C@@]1(NC(=O)OCC(C)C)CCCC(C)(C)[C@@H]1CC2` [Compound 17, (4bR,8aS)-8,8-Dimethyl-4b-{[(2-methylpropoxy)carbonyl]amino}-2-(propan-2-yl)-4b,5,6,7,8,8a,9,10-octahydrophenanthrene-3,4-diyl diacetate], for which, in the assay on Rb, the Rb protein level result is listed as “notable decrease”. Also, the “intracellular ROS levels relative to untreated cells” value in assay [1] (24 h (control 100%)) was 70%; in assay [1] (48 h (control 100%)), 157%; in assay [1] (72 h (control 100%)) it was 290%. The compound also returned a cell doubling time in the assay on SW480 cells [2] of 69 h. Also, the induction of apoptosis result in the assay with SW480 cells [3] is “did not induce apoptosis”.
